In US5332736A, “Anti-convulsant aroyl aminoacylpyrroles” (Ortho Pharmaceutical Corporation, priority 1993, dated 1994):

The compounds below were run on toxic extensor seizure (assay: maximal electroshock test (MES), mouse; block of the toxic extensor seizure (Swinyard 1952 method)). Conditions: ip.
Format: in vivo
From the text: The compound of formula (I) are useful as anticonvulsant agents. The anticonvulsant activity of the subject compounds was determine using a standard "maximal electroshock test" (MES). In this test, activity is indicated by a block of the toxic extensor seizure, as described by Swinyard et al in J. Pharmacol,. Exptl. Therap. 106, 319 (1952). A more recent description of current anticonvulsant drug screening is given in Swinyard et al., in Epilepsia 19, 409 (1978).
In the case of `Cn1cc(C(=O)CN2CCCCC2)cc1C(=O)c1ccc(Cl)cc1` [Example 9-1], the ED50 is reported as 24.4 mg/kg. `Cc1c(C(=O)CN2CCOCC2)c(C)n(C)c1C(=O)c1ccc(Cl)cc1` [Example 9-2] showed an ED50 of 87.6 mg/kg. Compound `CCN(CC)CC(=O)c1cc(C(=O)c2ccc(Cl)cc2)n(C)c1` [Example 9-4] has an ED50 of 14.4 mg/kg. Compound `Cc1c(C(=O)CN2CCCC2)c(C)n(C)c1C(=O)c1ccc(Cl)cc1` [Example 9-5] has an ED50 of 15.2 mg/kg. `Cn1cc(C(=O)CN2CCCCC2)cc1C(=O)c1ccccc1Cl` [Example 9-10] was tested, and the ED50 was 5.38 mg/kg. With `Cn1cc(C(=O)CN2CCCCCC2)cc1C(=O)c1ccc(Cl)cc1` [Example 9-11] the ED50 was 27.5 mg/kg. Work on `Cn1cc(C(=O)CN2CCCC2)cc1C(=O)c1cccc(Cl)c1` [Example 9-24] yielded an ED50 of 16.5 mg/kg. In the case of `Cn1cc(C(=O)CN2CCOCC2)cc1C(=O)c1cccc(Cl)c1` [Example 9-25], the ED50 is reported as 37.4 mg/kg. Compound `O=C(CN1CCOCC1)c1c[nH]c(C(=O)c2ccc(Cl)cc2)c1` [Example 9-27] has an ED50 of 86.2 mg/kg. In the case of `CCN(CC)CC(=O)c1cc(C(=O)c2ccc(OC)cc2)n(C)c1` [Example 9-29], the ED50 is reported as 33 mg/kg. `Cn1cc(C(=O)CN2CCCC2)cc1C(=O)c1ccc(Cl)cc1` [Example 9-30] showed an ED50 of 49.1 mg/kg. Compound `CCN(CC)CC(=O)c1c(C)c(C(=O)c2ccc(Cl)cc2)n(C)c1C` [Example 9-32] has an ED50 of 10.3 mg/kg. `CCN(CC)CC(=O)c1c(C)c(C(=O)c2ccc(Cl)cc2Cl)n(C)c1C` [Example 9-34] was tested, and the ED50 was 14.9 mg/kg.
